# Reference: patent US4241083A, “Germicidal composition for agriculture and horticulture” (priority 1978, dated 1980)
# Legend:
# Botrytis alli = assay: Growth of germs on potato dextrose-agar medium containing the compound (Ex. 3); assay type: cell-based; set-up: key: +++: extremely much growth; ++: much growth; +: a little growth; -: no growth; conditions: two weeks, 25° C.
# Description: (§1) Ethyl 2-(2-hydroxyethylamino)-3-benzoylpropionate hydrochloride was added to potato dextrose-agar culture medium in the concentration indicated in Table 1 and the suspensions of various kinds of germs were dropped on the culture medium. After incubation of the germs for two weeks in thermostat (25° C.), the growing conditions were observed.
# (§2) In Table 1, +++, ++, + and - represent "extremely much growth", "much growth", "a little growth" and "no growth" respectively.
# Valsa ceratosperma = assay: Length of disease spots on cut apple branches immersed in germicide before inoculation (Ex. 16); assay type: in vivo; conditions: 25° C.
# Description: Branches of Delicious apple (branch diameter: about 1 cm. thick) grown for 1-2 years were cut to 10 cm. length. The cut branches were dried in a low temperature chamber (3° C.) until the water content of the cut branches became 50%. The dried cut branches were immersed in an aqueous solution of ethyl 2-(2-hydroxyethylamino)-3-benzoylpropionate hydrochloride (500 ppm, 1000 ppm and 2500 ppm) for one minute and then dried.
# Each cut branch was end bored by a white heated 8 mm diameter cork borer. Valsa ceratosperma, previously cultured for four days on a potato dextrose-agar culture medium, was introduced into the branch by inoculating the branch with the Valsa ceratosperma containing culture by means of the sterilized cork borer. The branches prepared in this way were placed on wet filter paper spread in a polyethylene tray. The tray was inserted into a polyethylene bag which was sealed and then the bag was put into a thermostat (25° C.) for various controlled times.
# After removal from the thermostat, the length of disease spots on each branch was measured.
# A similar experiment for comparison was carried out using Benomyl, i.e. methyl-1-(buthylcarbamoyl)-2-benzimidazole carbamate as the germicide. The results of the comparative experiment and also a control experiment, in which the dried cut branches were not immersed in germicide (blank), are also shown in Table 2.
# Cladosporium cucumerium = assay: Prevention effect for cucumber scab (Ex. 19); assay type: in vivo; conditions: for Germicidal damage to seedlings: cucumber seedlings; for Percentage of leaf area with disease spots / Percentage of leaves attacked with the disease / Prevention value per leaf (Perfect prevention = 100): eighth day after spraying
# From the text: The prevention effect for cucumber scab was examined in the following manner.
# An aqueous solution of ethyl 2-(2-hydroxyethylamino)-3-benzoylpropionate hydrochloride (2500 ppm or 5000 ppm) was sprayed on cucumber seedlings (bifoliate age) of Tokiwa Hikari No. 3 (p type) variety which were planted in sections in two rows of three.
# After air-drying the seedlings, a spore suspention of Cladosporium cucumerium was inoculated on the test seedlings by means of a glass sprayer. The inoculated seedlings were kept at 18°-20° C. for four days in an inoculation box and then allowed to stand in a glass chamber.
# The leaf area on which scab spots appeared was measured on the eighth day after spraying the aqueous germicide solution. The spotted area is expressed as a prevention value.
# Stemphylium lycopersici = assay: Growth of germs on potato dextrose-agar medium containing the compound (Ex. 7); assay type: cell-based; set-up: key: +++: extremely much growth; ++: much growth; +: a little growth; -: no growth; conditions: two weeks, 25° C.
# Description: as §1, §2
# Sphaerotheca fuliginea = assay: Prevention effect for powdery mildew on cucumbers (Ex. 20, 21); assay type: in vivo; conditions: Table 5; for Germicidal damage to seedlings: cucumber seedlings; for Percentage of leaf area with disease spots / Percentage of leaves attacked with the disease / Prevention value per leaf (Perfect prevention = 100): third and ninth days, read fifteenth day after inoculation
# Description: The prevention effect for powdery mildew on cucumbers caused by Sphaerotheca fuliginea was examined in the following manner.
# Cucumber seedlings (bifoliate age) of Tokiwa Hikari No. 3 (p type) variety planted in sections of two rows of three were inoculated with the above germ by brushing on spores from a cucumber leaf attacked with powdery mildew. […]
# The leaf area on which powdery mildew spots appeared was measured on the fifteenth day after the seedlings were inoculated with the germ. The spotted area is expresses as a prevention value.
# The same experiment as Example 20 was carried out except that isopropyl 2-(2-hydroxyethylamino)-3-benzoyl-propionate hydrochloride was used instead of ethyl 2-(2-hydroxyethylamino)-3-benzoylpropionate hydrochloride.
# [1] = test system: Colletotrichum lagenarium; assay: Growth of germs on potato dextrose-agar medium containing the compound (Ex. 9, germ of anthracnose on cucumbers); assay type: cell-based; set-up: key: +++: extremely much growth; ++: much growth; +: a little growth; -: no growth; conditions: two weeks, 25° C.
# Description: as §1, §2
# ^1 Germ of anthracnose on cucumbers
# [2] = test system: Colletotrichum lagenarium; assay: Growth of germs on potato dextrose-agar medium containing the compound (Ex. 10, germ of anthracnose on watermelons); assay type: cell-based; set-up: key: +++: extremely much growth; ++: much growth; +: a little growth; -: no growth; conditions: two weeks, 25° C.
# Description: as §1, §2
# ^2 Germ of anthracnose on watermelons
# Phomopsis vexans = assay: Growth of germs on potato dextrose-agar medium containing the compound (Ex. 11); assay type: cell-based; set-up: key: +++: extremely much growth; ++: much growth; +: a little growth; -: no growth; conditions: two weeks, 25° C.
# Description: as §1, §2
# Sclerotinia sclerotiorum = assay: Growth of germs on potato dextrose-agar medium containing the compound (Ex. 12); assay type: cell-based; set-up: key: +++: extremely much growth; ++: much growth; +: a little growth; -: no growth; conditions: two weeks, 25° C.
# Description: as §1, §2
compound,measurement,setting,value
CCOC(=O)C(CC(=O)c1ccccc1)NCCO.Cl (stereo not shown) [Ethyl 2-(2-hydroxyethylamino)-3-benzoylpropionate hydrochloride],growing conditions (growth of germ),Botrytis alli; 10 ppm,+
same,growing conditions (growth of germ),Botrytis alli; 20 ppm,-
same,growing conditions (growth of germ),Botrytis alli; 50 ppm,-
same,growing conditions (growth of germ),Botrytis alli; 100 ppm,-
same,growing conditions (growth of germ),Botrytis alli; 200 ppm,-
same,Length of disease spot,"Valsa ceratosperma; 500 ppm, after 3 days",0 mm
same,Length of disease spot,"Valsa ceratosperma; 500 ppm, after 5 days",0 mm
same,Length of disease spot,"Valsa ceratosperma; 500 ppm, after 7 days",0.2 mm
same,Length of disease spot,"Valsa ceratosperma; 1000 ppm, after 3 days",0 mm
same,Length of disease spot,"Valsa ceratosperma; 1000 ppm, after 5 days",0 mm
same,Length of disease spot,"Valsa ceratosperma; 1000 ppm, after 7 days",0 mm
same,Length of disease spot,"Valsa ceratosperma; 2500 ppm, after 3 days",0 mm
same,Length of disease spot,"Valsa ceratosperma; 2500 ppm, after 5 days",0 mm
same,Length of disease spot,"Valsa ceratosperma; 2500 ppm, after 7 days",0 mm
same,Germicidal damage to seedlings,Cladosporium cucumerium; 2500 ppm,none
same,Percentage of leaf area with disease spots,Cladosporium cucumerium; 2500 ppm,25.0%
same,Percentage of leaves attacked with the disease,Cladosporium cucumerium; 2500 ppm,100%
same,Prevention value per leaf (Perfect prevention = 100),Cladosporium cucumerium; 2500 ppm,63.4
same,Germicidal damage to seedlings,Cladosporium cucumerium; 5000 ppm,none
same,Percentage of leaf area with disease spots,Cladosporium cucumerium; 5000 ppm,20.0%
same,Percentage of leaves attacked with the disease,Cladosporium cucumerium; 5000 ppm,100%
same,Prevention value per leaf (Perfect prevention = 100),Cladosporium cucumerium; 5000 ppm,70.7
same,growing conditions (growth of germ),Stemphylium lycopersici; 10 ppm,+
same,growing conditions (growth of germ),Stemphylium lycopersici; 20 ppm,+
same,growing conditions (growth of germ),Stemphylium lycopersici; 50 ppm,-
same,growing conditions (growth of germ),Stemphylium lycopersici; 100 ppm,-
same,growing conditions (growth of germ),Stemphylium lycopersici; 200 ppm,-
same,Germicidal damage to seedlings,Sphaerotheca fuliginea; 2500 ppm,none
same,Percentage of leaf area with disease spots,Sphaerotheca fuliginea; 2500 ppm,0%
same,Percentage of leaves attacked with the disease,Sphaerotheca fuliginea; 2500 ppm,0%
same,Prevention value per leaf (Perfect prevention = 100),Sphaerotheca fuliginea; 2500 ppm,100
same,Germicidal damage to seedlings,Sphaerotheca fuliginea; 5000 ppm,none
same,Percentage of leaf area with disease spots,Sphaerotheca fuliginea; 5000 ppm,0%
same,Percentage of leaves attacked with the disease,Sphaerotheca fuliginea; 5000 ppm,0%
same,Prevention value per leaf (Perfect prevention = 100),Sphaerotheca fuliginea; 5000 ppm,100
same,growing conditions (growth of germ),[1]; 10 ppm,+++
same,growing conditions (growth of germ),[1]; 20 ppm,-
same,growing conditions (growth of germ),[1]; 50 ppm,-
same,growing conditions (growth of germ),[1]; 100 ppm,-
same,growing conditions (growth of germ),[1]; 200 ppm,-
same,growing conditions (growth of germ),[2]; 10 ppm,++
same,growing conditions (growth of germ),[2]; 20 ppm,++
same,growing conditions (growth of germ),[2]; 50 ppm,-
same,growing conditions (growth of germ),[2]; 100 ppm,-
same,growing conditions (growth of germ),[2]; 200 ppm,-
same,growing conditions (growth of germ),Phomopsis vexans; 10 ppm,+
same,growing conditions (growth of germ),Phomopsis vexans; 20 ppm,-
same,growing conditions (growth of germ),Phomopsis vexans; 50 ppm,-
same,growing conditions (growth of germ),Phomopsis vexans; 100 ppm,-
same,growing conditions (growth of germ),Phomopsis vexans; 200 ppm,-
same,growing conditions (growth of germ),Sclerotinia sclerotiorum; 10 ppm,+++
same,growing conditions (growth of germ),Sclerotinia sclerotiorum; 20 ppm,+++
same,growing conditions (growth of germ),Sclerotinia sclerotiorum; 50 ppm,-
same,growing conditions (growth of germ),Sclerotinia sclerotiorum; 100 ppm,-
same,growing conditions (growth of germ),Sclerotinia sclerotiorum; 200 ppm,-
